Data as given in the supplement of paper PMC10307832.

Experiments:
Experiment in all cases: relative viability (nuclei count vs DMSO), 5 days (fraction); higher = more cells survive
Ricolinostat + Dasatinib = compound: O=C(CCCCCCNC(=O)c1cnc(N(c2ccccc2)c2ccccc2)nc1)NO [Ricolinostat] + Cc1nc(Nc2ncc(C(=O)Nc3c(C)cccc3Cl)s2)cc(N2CCN(CCO)CC2)n1 [Dasatinib] (partner 0.075 µM)
Summary of the method: (§1)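 Lung cancer cell lines, seeded in 1536-well plates, were treated the following day by pin tool with a single drug or with five library-drug doses (not always all listed) in √10 steps on top of a fixed anchor-drug dose. Cells were fixed and nuclei stained in one step after 5 days, and nuclei were counted. Relative viability is the nuclei count for treated wells divided by that for vehicle wells, reported as medians of duplicate plates.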

[1] = compound: C1=CC=C(C(=C1)C2=CC=C(C=C2)C3=CSC4=C3C(=C(C(=O)N4)C#N)O)O + CS(=O)(=O)CCNCc1ccc(-c2ccc3ncnc(Nc4ccc(OCc5cccc(F)c5)c(Cl)c4)c3c2)o1 [Lapatinib] (partner 2 µM)
Summary of the method: as §1

[2] = compound: C1=CC=C(C(=C1)C2=CC=C(C=C2)C3=CSC4=C3C(=C(C(=O)N4)C#N)O)O + CC1(C)CCC(c2ccc(Cl)cc2)=C(CN2CCN(c3ccc(C(=O)NS(=O)(=O)c4ccc(N[C@H](CCN5CCOCC5)CSc5ccccc5)c(S(=O)(=O)C(F)(F)F)c4)cc3)CC2)C1 [Navitoclax] (partner 0.5 µM)
Summary of the method: as §1

TGX 221 + Vorinostat = compound: CC1=CN2C(=O)C=C(N=C2C(=C1)C(C)NC3=CC=CC=C3)N4CCOCC4 [TGX 221] + O=C(CCCCCCC(=O)Nc1ccccc1)NO [Vorinostat] (partner 1 µM)
Summary of the method: as §1

Row | Cell Line | relative viability (Ricolinostat + Dasatinib; first compound 0.08 µM) | relative viability (Ricolinostat + Dasatinib; first compound 0.253 µM) | relative viability (Ricolinostat + Dasatinib; first compound 0.8 µM) | relative viability (Ricolinostat + Dasatinib; first compound 2.53 µM) | relative viability ([1]; first compound 0.08 µM) | relative viability ([1]; first compound 0.253 µM) | relative viability ([1]; first compound 0.8 µM) | relative viability ([1]; first compound 2.53 µM) | relative viability ([1]; first compound 8 µM) | relative viability ([2]; first compound 0.08 µM) | relative viability ([2]; first compound 0.253 µM) | relative viability ([2]; first compound 0.8 µM) | relative viability ([2]; first compound 2.53 µM) | relative viability ([2]; first compound 8 µM) | relative viability (TGX 221 + Vorinostat; first compound 0.08 µM) | relative viability (TGX 221 + Vorinostat; first compound 0.253 µM) | relative viability (TGX 221 + Vorinostat; first compound 0.8 µM) | relative viability (TGX 221 + Vorinostat; first compound 2.53 µM) | relative viability (TGX 221 + Vorinostat; first compound 8 µM)
1 | NCI-H1666 | 0.804 | 0.875 | 0.827 | 0.622 | 0.667 | 0.826 | 0.577 | 0.427 | 0.59 | 0.946 | 1.03 | 0.876 | 0.944 | 0.879 | 0.958 | 0.963 | 1.06 | 1.06 | 1.1
2 | EKVX | 0.471 | 0.658 | 0.577 | 0.606 | 0.225 | 0.208 | 0.201 | 0.195 | 0.211 | 0.897 | 1.13 | 1.03 | 0.922 | 0.903 | 0.767 | 0.758 | 0.841 | 0.608 | 0.539
3 | HARA | 0.271 | 0.224 | 0.217 | 0.192 |  | 1.03 | 0.821 | 0.762 | 0.738 |  | 1.41 | 1.19 | 1.15 | 1.02 | 0.508 | 0.475 | 0.575 | 0.517 | 0.471
4 | A-427 |  | 0.621 | 0.583 | 0.471 | 0.917 | 1.06 | 1.2 | 1.03 | 1.2 | 0.999 | 0.951 | 1.01 | 0.957 | 1.02 | 0.872 | 0.876 | 0.817 | 0.847 | 0.856
5 | NCI-H2087 |  | 0.903 | 0.663 | 0.889 | 1.05 | 1.11 | 1.01 | 1.19 | 1.04 | 1.02 | 1.05 | 1.1 | 1.15 | 0.994 | 0.814 | 0.855 | 0.483 | 0.664 | 0.932
6 | NCI-H460 | 0.319 | 0.459 | 0.444 | 0.42 |  | 1.09 | 0.868 | 1.24 | 0.747 |  | 0.414 | 1.43 | 1.31 | 0.271 | 0.654 | 0.632 | 0.655 | 0.691 | 0.595
7 | PC-14 | 0.243 | 0.248 | 0.267 | 0.233 | 0.287 | 0.38 | 0.3 | 0.256 | 0.269 | 0.951 | 0.992 | 1.15 | 1.1 | 0.798 | 0.682 | 0.626 | 0.687 | 0.748 | 0.662
8 | NCI-H2009 | 0.231 | 0.295 | 0.347 | 0.365 | 1.04 | 0.933 | 0.795 | 0.886 | 0.724 | 1.06 | 1.08 | 1.21 | 1.17 | 1.09 | 0.731 | 0.687 | 0.72 | 0.819 | 0.559
9 | COR-L 105 |  | 0.368 | 0.397 | 0.401 | 0.4 | 0.353 | 0.34 | 0.344 | 0.345 | 0.951 | 0.776 | 0.829 | 0.704 | 0.784 | 0.906 | 0.884 | 0.869 | 0.726 | 0.82
10 | NCI-H1993 |  | 0.558 | 0.61 | 0.671 | 0.889 | 0.814 | 0.764 | 0.869 | 0.782 | 0.951 | 0.925 | 1.05 | 0.781 | 0.879 | 0.821 | 0.611 | 0.742 | 0.788 | 0.724
11 | NCI-H1395 |  | 0.383 | 0.368 | 0.403 |  | 0.87 | 1.05 | 0.974 | 0.965 |  | 1.21 | 1.15 | 1.05 | 1.12 | 0.601 | 0.537 | 0.553 | 0.557 | 0.664
12 | SW 1573 | 0.756 | 0.507 | 0.695 | 0.581 | 0.991 | 1.12 | 1.21 | 1.11 | 0.862 | 0.965 | 0.902 | 0.901 | 0.976 | 0.784 | 0.648 | 0.655 | 0.739 | 0.888 | 0.778
13 | BEN | 0.269 | 0.322 | 0.279 | 0.213 | 0.577 | 0.663 | 0.716 | 0.87 | 0.645 | 0.0583 | 0.07 | 0.0922 | 0.0562 | 0.063 | 0.588 | 0.572 | 0.523 | 0.501 | 0.547
14 | RERF-LC-KJ | 0.743 | 0.759 | 0.748 | 0.518 | 0.787 | 0.883 | 0.884 | 0.833 | 0.848 | 0.777 | 0.902 | 0.976 | 0.715 | 0.811 | 0.684 | 0.708 | 0.678 | 0.69 | 0.678
15 | UMC-11 | 0.427 | 0.39 | 0.399 | 0.242 | 0.745 | 0.871 | 0.941 | 1 | 0.858 | 0.321 | 0.301 | 0.321 | 0.314 | 0.318 | 0.417 | 0.391 | 0.402 | 0.373 | 0.359
16 | HOP-62 | 0.533 | 0.669 | 0.655 | 0.423 | 0.766 | 0.888 | 1.1 | 1.19 | 0.871 | 1.22 | 1.1 | 1.04 | 1.18 | 0.922 | 0.57 | 0.581 | 0.667 | 0.521 | 0.542
17 | NCI-H2023 |  | 0.569 | 0.535 | 0.472 | 0.925 | 0.94 | 0.579 | 0.729 | 0.88 | 0.891 | 0.89 | 0.953 | 1.03 | 1.16 | 0.552 | 0.701 | 0.759 | 0.495 | 0.502
18 | NCI-H596 | 0.586 | 0.553 | 0.613 | 0.494 | 0.866 | 1.17 | 1.16 | 0.999 | 1.02 | 0.791 | 1.32 | 0.955 | 0.951 | 0.787 | 0.571 | 0.588 | 0.685 | 0.494 | 0.524
